Assay results reported in patent US20190255086A1, “Compositions and Methods for Treating an Infection” (CMPD Licensing, LLC, priority 2015, published 2019).

What was measured:
Bacteroides fragilis = assay: Expected efficacy of anti-bacterial agents against various bacteria (Tables 5 and 6); conditions: Gram: anaer
Clostridium difficile = assay: as above; conditions: Gram: anaer
Clostridium perfringens = conditions: expected efficacy; Clostridium perfringens; Gram: anaer
Chlamydia pneumoniae = assay: Expected efficacy of anti-bacterial agents against various bacteria (Tables 5 and 6); conditions: Gram: n/a
Chlamydia psittaci = conditions: expected efficacy; Chlamydia psittaci; Gram: n/a
Chlamydia trachomatis = assay: Expected efficacy of anti-bacterial agents against various bacteria (Tables 5 and 6); conditions: Gram: n/a
Mycoplasma pneumoniae = assay: as above; conditions: Gram: n/a
Acinetobacter baumannii = assay: as above; conditions: Gram: neg
[1] = system: Acinetobacter calcoaceticus; assay: as above; conditions: Gram: neg
Acinetobacter lwoffii = assay: as above; conditions: Gram: neg
Bartonella bacilliformis = assay: as above; conditions: Gram: neg
Bordetella pertussis = assay: as above; conditions: Gram: neg
Brucella species = conditions: expected efficacy; Brucella species; Gram: neg
Campylobacter jejuni = assay: Expected efficacy of anti-bacterial agents against various bacteria (Tables 5 and 6); conditions: Gram: neg
Citrobacter diversus = assay: as above; conditions: Gram: neg
Citrobacter freundii = assay: as above; conditions: Gram: neg
Enterobacter aerogenes = assay: as above; conditions: Gram: neg
Enterobacter cloacae = assay: as above; conditions: Gram: neg
Enterobacter sakazakii = assay: as above; conditions: Gram: neg
Escherichia coli = assay: as above; conditions: Gram: neg
Francisella tularensis = conditions: expected efficacy; Francisella tularensis; Gram: neg
Haemophilus influenzae = assay: Expected efficacy of anti-bacterial agents against various bacteria (Tables 5 and 6); conditions: Gram: neg
[2] = system: Klebsiella (Calymmatobacterium) granulomatis; assay: as above; conditions: Gram: neg
Klebsiella oxytoca = assay: as above; conditions: Gram: neg
Klebsiella pneumoniae = assay: as above; conditions: Gram: neg
Legionella pneumophila = conditions: expected efficacy; Legionella pneumophila; Gram: neg
Moraxella catarrhalis = assay: Expected efficacy of anti-bacterial agents against various bacteria (Tables 5 and 6); conditions: Gram: neg
Morganella morganii = assay: as above; conditions: Gram: neg
Neisseria meningitidis = assay: as above; conditions: Gram: neg
Proteus mirabilis = assay: as above; conditions: Gram: neg
Proteus vulgaris = assay: as above; conditions: Gram: neg
Providencia rettgeri = assay: as above; conditions: Gram: neg
Providencia stuartii = assay: as above; conditions: Gram: neg
Pseudomonas aeruginosa = assay: as above; conditions: Gram: neg
Pseudomonas fluorescens = assay: as above; conditions: Gram: neg
Rickettsiae = conditions: expected efficacy; Rickettsiae; Gram: neg
Serratia marcescens = assay: Expected efficacy of anti-bacterial agents against various bacteria (Tables 5 and 6); conditions: Gram: neg
Vibrio cholerae = assay: as above; conditions: Gram: neg
Corynebacterium jeikeium = assay: as above; conditions: Gram: pos
Enterococcus faecalis = assay: as above; conditions: Gram: pos
Enterococcus faecium = assay: as above; conditions: Gram: pos
[3] = system: Methicillin resistant staph aureus (MRSA); assay: as above; conditions: Gram: pos
[4] = system: Staphylococcus aureus (MSSA); assay: as above; conditions: Gram: pos
[5] = system: Staphylococcus epidermidis; assay: as above; conditions: Gram: pos
Streptococcus agalactiae = assay: as above; conditions: Gram: pos
Streptococcus pneumoniae = assay: as above; conditions: Gram: pos
Streptococcus pyogenes = assay: as above; conditions: Gram: pos
[6] = system: Haemophilus parainfluenzae; assay: as above; conditions: Gram: neg
Neisseria gonorrhoeae = assay: as above; conditions: Gram: neg
Salmonella typhi = assay: as above; conditions: Gram: neg
Shigella boydii = assay: as above; conditions: Gram: neg
Shigella dysenteriae = assay: as above; conditions: Gram: neg
Shigella flexneri = assay: as above; conditions: Gram: neg
Shigella sonnei = assay: as above; conditions: Gram: neg
Yersinia pestis = conditions: expected efficacy; Yersinia pestis; Gram: neg
Candida species = assay: Expected efficacy of anti-fungal agents against various fungi (Table 4)

CC[C@H]1OC(=O)[C@H](C)[C@@H](O[C@H]2C[C@@](C)(OC)[C@@H](O)[C@H](C)O2)[C@H](C)[C@@H](O[C@@H]2O[C@H](C)C[C@H](N(C)C)[C@H]2O)[C@](C)(O)C[C@@H](C)CN(C)[C@H](C)[C@@H](O)[C@]1(C)O [Azithromycin]
yes: Efficacy of various antibiotic agents (Chlamydia pneumoniae) | Efficacy of various antibiotic agents (Chlamydia psittaci) | Efficacy of various antibiotic agents (Chlamydia trachomatis) | Efficacy of various antibiotic agents (Mycoplasma pneumoniae) | Efficacy of various antibiotic agents (Bartonella bacilliformis) | Efficacy of various antibiotic agents (Bordetella pertussis) | Efficacy of various antibiotic agents (Campylobacter jejuni) | Efficacy of various antibiotic agents (Haemophilus influenzae) | Efficacy of various antibiotic agents (Legionella pneumophila) | Efficacy of various antibiotic agents (Moraxella catarrhalis) | Efficacy of various antibiotic agents (Neisseria meningitidis) | Efficacy of various antibiotic agents (Rickettsiae) | Efficacy of various antibiotic agents (Vibrio cholerae) | Efficacy of various antibiotic agents [4] | Efficacy of various antibiotic agents [5] | Efficacy of various antibiotic agents (Streptococcus agalactiae) | Efficacy of various antibiotic agents (Streptococcus pneumoniae) | Efficacy of various antibiotic agents (Streptococcus pyogenes)
no: Efficacy of various antibiotic agents (Bacteroides fragilis) | Efficacy of various antibiotic agents (Clostridium difficile) | Efficacy of various antibiotic agents (Clostridium perfringens) | Efficacy of various antibiotic agents (Acinetobacter baumannii) | Efficacy of various antibiotic agents [1] | Efficacy of various antibiotic agents (Acinetobacter lwoffii) | Efficacy of various antibiotic agents (Brucella species) | Efficacy of various antibiotic agents (Citrobacter diversus) | Efficacy of various antibiotic agents (Citrobacter freundii) | Efficacy of various antibiotic agents (Enterobacter aerogenes) | Efficacy of various antibiotic agents (Enterobacter cloacae) | Efficacy of various antibiotic agents (Enterobacter sakazakii) | Efficacy of various antibiotic agents (Escherichia coli) | Efficacy of various antibiotic agents (Francisella tularensis) | Efficacy of various antibiotic agents [2] | Efficacy of various antibiotic agents (Klebsiella oxytoca) | Efficacy of various antibiotic agents (Klebsiella pneumoniae) | Efficacy of various antibiotic agents (Morganella morganii) | Efficacy of various antibiotic agents (Proteus mirabilis) | Efficacy of various antibiotic agents (Proteus vulgaris) | Efficacy of various antibiotic agents (Providencia rettgeri) | Efficacy of various antibiotic agents (Providencia stuartii) | Efficacy of various antibiotic agents (Pseudomonas aeruginosa) | Efficacy of various antibiotic agents (Pseudomonas fluorescens) | Efficacy of various antibiotic agents (Serratia marcescens) | Efficacy of various antibiotic agents (Corynebacterium jeikeium) | Efficacy of various antibiotic agents (Enterococcus faecalis) | Efficacy of various antibiotic agents (Enterococcus faecium) | Efficacy of various antibiotic agents [3]

O=C(O)c1cn(C2CC2)c2cc(N3CCNCC3)c(F)cc2c1=O [Ciprofloxacin]
yes: Efficacy of various antibiotic agents (Chlamydia pneumoniae) | Efficacy of various antibiotic agents (Bartonella bacilliformis) | Efficacy of various antibiotic agents (Campylobacter jejuni) | Efficacy of various antibiotic agents (Citrobacter diversus) | Efficacy of various antibiotic agents (Citrobacter freundii) | Efficacy of various antibiotic agents (Enterobacter aerogenes) | Efficacy of various antibiotic agents (Escherichia coli) | Efficacy of various antibiotic agents (Francisella tularensis) | Efficacy of various antibiotic agents (Haemophilus influenzae) | Efficacy of various antibiotic agents [6] | Efficacy of various antibiotic agents (Klebsiella oxytoca) | Efficacy of various antibiotic agents (Klebsiella pneumoniae) | Efficacy of various antibiotic agents (Legionella pneumophila) | Efficacy of various antibiotic agents (Moraxella catarrhalis) | Efficacy of various antibiotic agents (Morganella morganii) | Efficacy of various antibiotic agents (Neisseria gonorrhoeae) | Efficacy of various antibiotic agents (Neisseria meningitidis) | Efficacy of various antibiotic agents (Proteus mirabilis) | Efficacy of various antibiotic agents (Proteus vulgaris) | Efficacy of various antibiotic agents (Providencia rettgeri) | Efficacy of various antibiotic agents (Providencia stuartii) | Efficacy of various antibiotic agents (Pseudomonas aeruginosa) | Efficacy of various antibiotic agents (Pseudomonas fluorescens) | Efficacy of various antibiotic agents (Rickettsiae) | Efficacy of various antibiotic agents (Salmonella typhi) | Efficacy of various antibiotic agents (Serratia marcescens) | Efficacy of various antibiotic agents (Shigella boydii) | Efficacy of various antibiotic agents (Shigella dysenteriae) | Efficacy of various antibiotic agents (Shigella flexneri) | Efficacy of various antibiotic agents (Shigella sonnei) | Efficacy of various antibiotic agents (Vibrio cholerae) | Efficacy of various antibiotic agents (Yersinia pestis) | Efficacy of various antibiotic agents [5]
no: Efficacy of various antibiotic agents (Bacteroides fragilis) | Efficacy of various antibiotic agents (Corynebacterium jeikeium) | Efficacy of various antibiotic agents (Enterococcus faecium) | Efficacy of various antibiotic agents [3]

C[C@@H]1[C@H](O)[C@@H](C)/C=C/C=C/CC/C=C/C=C/C=C/C=C/C(O[C@H]2O[C@H](C)[C@@H](O)[C@H](N)[C@@H]2O)CC2O[C@](O)(CC(O)C(O)CCC(O)CC(O)CC(O)CC(=O)O[C@H]1C)CC(O)C2C(=O)O (stereo partly shown) [Nystatin]
yes: Efficacy of various antifungal agents (Candida species)
